# Laboratory results reported in US7947692B2, “Substituted thiazolo[5,4-d]pyrimidine urea derivatives” (Hoffmann-La Roche Inc., priority 2006, dated 2011).
# Biological target: T1, human adenosine A2B receptor (Homo sapiens, UniProt P29275)
# T1 construct: expressed in transfected cells; host or cells: CHO.K1
# T1 sequence (P29275 1-332): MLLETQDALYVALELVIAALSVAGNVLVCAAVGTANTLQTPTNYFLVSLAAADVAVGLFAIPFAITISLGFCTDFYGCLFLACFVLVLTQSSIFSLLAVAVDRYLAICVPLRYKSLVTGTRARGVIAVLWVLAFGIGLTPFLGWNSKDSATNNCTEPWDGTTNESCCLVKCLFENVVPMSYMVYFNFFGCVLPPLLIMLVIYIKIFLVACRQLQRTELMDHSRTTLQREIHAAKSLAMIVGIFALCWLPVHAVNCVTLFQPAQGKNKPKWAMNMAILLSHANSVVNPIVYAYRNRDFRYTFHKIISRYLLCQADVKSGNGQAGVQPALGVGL
# Test: Inhibitory activity on NECA-induced cyclic AMP production in CHO.K1 cells expressing human adenosine A2B receptor
# Type: cell-based
# Details: 100 nM NECA, cAMP (HitHunter kit), 30-45 min incubation
# Experimental: Cells were cultured under 5%CO2/95% […] atmosphere at 37° C. in DMEM and D-MEM/F-12 (1:1 mixture) medium (Invitrogen, Grand Island, N.Y.) with 10% fetal calf serum (Invitrogen, Grand Island, N.Y.), 100 U/mL penicillin (Invitrogen, Grand Island, N.Y.), 100 U/mL streptomycin (Invitrogen, Grand Island, N.Y.), 1 mg/mL G418 (Invitrogen, Grand Island N.Y.) and 0.2 mg/mL Hygromycin B (Invitrogen, Carlsbad, Calif.). Experimental cultures were grown overnight as a monolayer in 384-well tissue culture plates (0.06 ml/well-7500 cells/well). Each well was washed once with 0.1 mL of Krebs buffer. To each well was added 50 uL of Krebs buffer containing 100 uM of the phosphodiesterase inhibitor 4-(3-butoxy-4-methoxybenzyl)-2-imidazolidinone, 100 nM NECA (Sigma-Aldrich, St. Louis, Mo.), 0.02% BSA Fraction V (Roche Biochemicals), the test compound (appropriate concentration). The final concentration of DMSO was 1.1%. After incubation for 30-45 min, the wells were emptied and blotted on paper towel to remove residual solution. The HitHunter™ cAMP Assay Kit from DiscoverX for adherent cells (Fremont, Calif.) was used for lysing the cells and measuring cAMP concentrations.
row,SMILES,IC50 [nM]
1,"COc1ncnc2sc(NC(=O)N3CCC(NCc4ccc(F)c(C(F)(F)F)c4)C3)nc12 (stereo in doubt) [Example 87, (R)-3-(4-Fluoro-3-trifluoromethyl-benzylamino)-pyrrolidine-1-carboxylic acid (7-methoxy-thiazolo[5,4-d]pyrimidin-2-yl)-amide]",2
2,"COc1ncnc2sc(NC(=O)N3CCN(Cc4cccc(C(F)(F)F)c4)CC3)nc12 [Example 1, 4-(3-trifluoromethyl-benzyl)-piperazine-1-carboxylic acid (7-methoxy-thiazolo[5,4-d]pyrimidin-2-yl)-amide]",5
3,"COc1ncnc2sc(NC(=O)N3CCN(Cc4cccc(OCCO)c4)CC3)nc12 [Example 16, 4-[3-(2-Hydroxy-ethoxy)-benzyl]-piperazine-1-carboxylic acid (7-methoxy-thiazolo[5,4-d]pyrimidin-2-yl)-amide]",197
4,"COc1ncnc2sc(NC(=O)N3CCC4(CC3)C(=O)NC[C@H]4c3ccc(F)cc3)nc12 [Example 31, 4-(4-Fluoro-phenyl)-1-oxo-2,8-diazaspiro[4,5]decane-8-carboxylic acid(7-methoxy-thiazolo[5,4-d]pyrimidin-2-yl)-amide]",9
5,"COc1ncnc2sc(NC(=O)N3CCC4(CC3)CN(S(C)(=O)=O)c3ccc(Cl)cc34)nc12 [Example 48, 5-Chloro-1,2-dihydro-N-(7-methoxythiazole[5,4-d]pyrimidin-2-yl)-1-(methylsulfonyl)spiro[3H-indole-3,4′-piperidine]-1′-carboxamide]",9
6,"CCOC(=O)C1(Cc2ccc(OC(F)(F)F)cc2)CCCN(C(=O)Nc2nc3c(OC)ncnc3s2)C1 (centres unmarked) [Example 54, 1-(7-Methoxy-thiazolo[5,4-d]pyrimidin-2-ylcarbamoyl)-3-(4-trifluoromethoxy-benzyl)-piperidine-3-carboxylic acid ethyl ester]",1460
7,"COc1ncnc2sc(NC(=O)N3CCC(n4c(=O)[nH]c5ccccc54)CC3)nc12 [Example 57, 4-(2-Oxo-2,3-dihydro-benzoimidazol-1-yl)-piperidine-1-carboxylic acid (7-methoxy-thiazolo[5,4-d]pyrimidin-2-yl)-amide]",52
8,"COc1ncnc2sc(NC(=O)N3CC[C@H](NC(=O)c4ccc(F)c(C(F)(F)F)c4)C3)nc12 [Example 89, (S)-3-(4-fluoro-3-trifluoromethyl-benzoylamino)-pyrrolidine-1-carboxylic acid (7-methoxy-thiazolo[5,4-d]pyrimidin-2-yl)-amide]",4

# Other lines, results leading:
row,IC50 [nM],SMILES
1,30,"COC(=O)c1cccc(CN2CCN(C(=O)Nc3nc4c(OC)ncnc4s3)CC2)c1 [Example 10, 3-[4-(7-Methoxy-thiazolo[5,4-d]pyrimidin-2-ylcarbamoyl)-piperazin-1-ylmethyl]-benzoic acid methyl ester]"
2,1560,"COc1ncnc2sc(NC(=O)N3CCN(Cc4cccc(C(=O)O)c4O)CC3)nc12 [Example 27, 2-Hydroxy-3-[4-(7-methoxy-thiazolo[5,4-d]pyrimidin-2-ylcarbamoyl)-piperazin-1-ylmethyl]-benzoic acid]"
3,218,"COc1ncnc2sc(NC(=O)N3CCC(N4CCCC4c4ccccc4)CC3)nc12 (centres unmarked) [Example 62, 4-(2-Phenyl-pyrrolidin-1-yl)-piperidine-1-carboxylic acid (7-methoxy-thiazolo[5,4-d]pyrimidin-2-yl)-amide]"
4,51,"COc1ncnc2sc(NC(=O)N3CC=C(c4cccc(C(F)(F)F)c4)CC3)nc12 [Example 67, 4-(3-Trifluoromethyl-phenyl)-3,6-dihydro-2H-pyridine-1-carboxylic acid (7-methoxy-thiazolo[5,4-d]pyrimidin-2-yl)-amide]"
5,73,"COC(=O)c1ccccc1S(=O)(=O)C1CCN(C(=O)Nc2nc3c(OC)ncnc3s2)CC1 [Example 76, 2-[1-(7-Methoxy-thiazolo[5,4-d]pyrimidin-2-ylcarbamoyl)-piperidine-4-sulfonyl]-benzoic acid methyl ester]"
6,115,"COc1ncnc2sc(NC(=O)N3CCc4cc(C(F)(F)F)ccc4C3)nc12 [Example 95, 6-Trifluoromethyl-3,4-dihydro-1H-isoquinoline-2-carboxylic acid (7-methoxy-thiazolo[5,4-d]pyrimidin-2-yl)-amide]"
